In patent US20230002346A1, “NEW COMPOUNDS AND METHODS” (BenevolentAl Bio Limited, priority 2019, published 2023):
In brackets after ≈: the same amount, converted by molar mass.

Target: T1, hERG channel (Homo sapiens, UniProt Q12809)
T1 construct: expressed in transfected cells
Experiment: hERG assay (QPatch automated patch clamp, CHO cells)
Assay type: cell-based
Conditions: CHO cells expressing hERG, whole-cell patch clamp, 0.003 μM to 10 μM
From the text: The human ether-a-go-go related gene (hERG) potassium channel (Kv11.1) contributes to human cardiac action potential repolarisation. Inhibition of hERG channels can prolong the human cardiac action potential, resulting in QTc prolongation and potentially lethal arrhythmias (e.g. Torsade de Pointes).
Test samples were screened against the hERG channel on a QPatch 48 gigaseal automated patch clamp platform, using a Chinese Hamster Ovary (CHO) cell line stably expressing the human ether-á-go-go related gene, which encodes the hERG channel. All recordings were made in the conventional whole-cell configuration and performed at RT ([…]) using standard single hole chips (Rchip 1.5-4M0). Series resistance (4-15Mc) was compensated by >80%. Currents were elicited from a holding potential of −90 mV using the industry standard “^+40/−40” voltage protocol, which was applied at a stimulus frequency of 0.1 Hz. On achieving the whole-cell configuration, vehicle (0.1% DMSO v/v in external recording solution) was applied to each cell in two bolus additions with a 2 min recording period between each addition. Following the vehicle period, eight increasing concentrations of test sample were applied from 0.003 μM to 10 μM as a single bolus addition per test concentration, and the effects on hERG tail current amplitude measured during the 2 min recording period. Each eight-point concentration-response curve was constructed using cumulative single sample additions of each concentration to the same cell. The positive control used in this study was verapamil hydrochloride (Tocris, Cat #0654, Batch #5A/61673) and prepared to a stock concentration of 10 mM in 100% DMSO and kept as frozen aliquots.
Data analysis: All cells passing the QC parameters (i.e. >200 pA outward current, membrane resistance and rundown) are selected as ‘passed QC’ using the QPatch software, which then calculates the mean peak current for the last three sweeps at the end of each concentration application period from the cursor positions defined. Percent inhibition is calculated for each test concentration application period as the reduction in mean cursor value (peak current or charge) relative to the cursor value measured at the end of the control (i.e. vehicle) period. The percent inhibition values from each cell are used to construct concentration-response curves employing a four parametric logistic fit with 0 and 100% inhibition levels fixed at very low and very high concentrations, respectively, and a free Hill slope factor. The IC50 (50% inhibitory concentration) and Hill coefficient are then determined, but only data from cells with Hill slopes within 0.5>nH<2.0 are included. The IC50 data reported below represents the mean (and S.D.) of at least three separate cells (N≥3). […] Compounds of the invention show reduced hERG inhibitory activity compared to the reference examples.

T1 sequence (Q12809 whole entry): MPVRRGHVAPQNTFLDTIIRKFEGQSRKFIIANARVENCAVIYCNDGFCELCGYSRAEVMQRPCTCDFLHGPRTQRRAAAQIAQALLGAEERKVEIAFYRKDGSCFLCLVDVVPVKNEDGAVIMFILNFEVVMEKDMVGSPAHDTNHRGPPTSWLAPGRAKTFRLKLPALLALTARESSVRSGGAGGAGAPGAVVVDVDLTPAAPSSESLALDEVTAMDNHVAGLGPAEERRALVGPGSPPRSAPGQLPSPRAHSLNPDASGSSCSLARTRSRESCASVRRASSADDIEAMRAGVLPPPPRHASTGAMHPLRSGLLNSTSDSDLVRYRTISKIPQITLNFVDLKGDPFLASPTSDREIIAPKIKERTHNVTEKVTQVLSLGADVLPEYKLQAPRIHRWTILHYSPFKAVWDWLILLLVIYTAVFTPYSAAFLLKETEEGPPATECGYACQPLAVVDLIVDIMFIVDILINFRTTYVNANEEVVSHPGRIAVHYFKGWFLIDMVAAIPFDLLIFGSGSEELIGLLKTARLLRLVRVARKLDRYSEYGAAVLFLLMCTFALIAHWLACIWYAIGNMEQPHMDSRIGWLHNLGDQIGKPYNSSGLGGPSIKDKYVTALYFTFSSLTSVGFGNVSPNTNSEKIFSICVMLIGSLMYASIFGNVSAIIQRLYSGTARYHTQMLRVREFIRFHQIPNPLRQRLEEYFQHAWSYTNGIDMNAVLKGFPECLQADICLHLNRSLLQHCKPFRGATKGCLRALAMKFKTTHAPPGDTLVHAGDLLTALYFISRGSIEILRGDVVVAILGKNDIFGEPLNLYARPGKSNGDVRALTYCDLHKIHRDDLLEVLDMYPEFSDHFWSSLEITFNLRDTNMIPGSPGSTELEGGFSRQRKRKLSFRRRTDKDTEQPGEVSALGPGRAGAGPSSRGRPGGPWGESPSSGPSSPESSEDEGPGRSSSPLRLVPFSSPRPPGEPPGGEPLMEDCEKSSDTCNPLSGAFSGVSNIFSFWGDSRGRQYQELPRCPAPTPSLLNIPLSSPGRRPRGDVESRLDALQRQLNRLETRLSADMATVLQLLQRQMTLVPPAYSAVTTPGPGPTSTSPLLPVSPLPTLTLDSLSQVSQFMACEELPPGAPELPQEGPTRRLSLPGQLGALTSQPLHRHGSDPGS

| SMILES | IC50 |
| --- | --- |
| Cc1c(-n2cc(C(=O)Nc3ccc(OC(F)(F)Cl)cc3)ccc2=O)cnn1C [Example 18, N-[4-[Chloro(difluoro)methoxy]phenyl]-1-(1,5-dimethylpyrazol-4-yl)-6-oxo-pyridine-3-carboxamide] | > 10 µM |
| Cn1cc(C(=O)Nc2ccc(OC(F)(F)F)cc2)ccc1=O [Example 26, 1-Methyl-6-oxo-N-[4-(trifluoromethoxy)phenyl]pyridine-3-carboxamide] | > 10 µM |
| Cn1cc(C(=O)Nc2ccc(OC(F)(F)Cl)cc2)cc(-c2cncnc2)c1=O [Example 82, N-[4-(Chlorodifluoromethoxy)phenyl]-1-methyl-6-oxo-5-(pyrimidin-5-yl)-1,6-dihydropyridine-3-carboxamide] | > 10 µM |
| O=C(Nc1ccc(OC(F)(F)Cl)cc1)c1cccc(-c2cncnc2)c1 [Ref. ex. 2, N-[4-[Chloro(difluoro)methoxy]phenyl]-3-pyrimidin-5-ylbenzamide, reference compound] | 1.9 µM |
| Cc1ccc(C(=O)Nc2ccc(OC(F)(F)F)cc2)cc1-c1cccnc1 [Ref. ex. 3, 4-Methyl-3-(3-pyridyl)-N-[4-(trifluoromethoxy)phenyl]benzamide, reference compound] | 2.5 µM |

System: not listed separately
Experiment: Kinetic aqueous solubility assay
Assay type: physicochemical
Conditions: aqueous buffer, kinetic from dmso stock, 0.05M potassium phosphate buffer pH 7.4, 250 μM spike, RT
Experimental: Using a 10 mM stock solution of test compound in 100% DMSO, test compounds were spiked into 0.05M potassium phosphate buffer (pH 7.4) at a final concentration of 250 μM. Samples in buffer (n=2 aqueous samples, in 96-well plates) were allowed to equilibrate at RT on an orbital shaker for 30 min (300 rpm) to induce precipitation of test compounds. The appearance of each sample was determined by visual examination and noted (clear, cloudy, precipitate observed etc.). […] The concentration of compound in phosphate buffer filtrate was determined by comparing the UV absorbance peak area of each replicate against that of the calibration standards. […] Compounds of the invention have much improved solubility compared to the reference examples.

| solubility at 30 min | SMILES |
| --- | --- |
| 140 µM (≈ 55.3 µg/mL) | Cn1ccc(-n2cc(C(=O)Nc3ccc(OC(F)(F)Cl)cc3)ccc2=O)n1 [Example 3, N-[4-(Chlorodifluoromethoxy)phenyl]-1-(1-methyl-1H-pyrazol-3-yl)-6-oxo-1,6-dihydropyridine-3-carboxamide] |
| 140 µM (≈ 59.2 µg/mL) | COc1ncc(-n2cc(C(=O)Nc3ccc(OC(F)(F)Cl)cc3)ccc2=O)cn1 [Example 12, N-[4-[Chloro(difluoro)methoxy]phenyl]-1-(2-methoxypyrimidin-5-yl)-6-oxo-pyridine-3-carboxamide] |
| 100 µM (≈ 41.6 µg/mL) | N#Cc1cccc(-n2cc(C(=O)Nc3ccc(OC(F)(F)Cl)cc3)ccc2=O)c1 [Example 20, N-[4-(Chlorodifluoromethoxy)phenyl]-1-(3-cyanophenyl)-6-oxo-1,6-dihydropyridine-3-carboxamide] |
| 140 µM (≈ 60.1 µg/mL) | Cn1ncc(-n2cc(C(=O)Nc3ccc(OC(F)(F)Cl)cc3)ccc2=O)c1Cl [Example 30, 1-(5-Chloro-1-methyl-1H-pyrazol-4-yl)-N-[4-(chlorodifluoromethoxy)phenyl]-6-oxo-1,6-dihydropyridine-3-carboxamide] |
| 150 µM (≈ 62.5 µg/mL) | N#Cc1cncc(-n2cc(C(=O)Nc3ccc(OC(F)(F)Cl)cc3)ccc2=O)c1 [Example 55, N-[4-[Chloro(difluoro)methoxy]phenyl]-1-(5-cyano-3-pyridyl)-6-oxo-pyridine-3-carboxamide] |
| 170 µM (≈ 69.2 µg/mL) | Cn1cc(C(=O)Nc2ccc(OC(F)(F)Cl)cc2)cc(-c2cncnc2)c1=O [Example 82, N-[4-(Chlorodifluoromethoxy)phenyl]-1-methyl-6-oxo-5-(pyrimidin-5-yl)-1,6-dihydropyridine-3-carboxamide] |

Continued, molecule first:

| SMILES | solubility at 30 min |
| --- | --- |
| O=C(Nc1ccc(OC(F)(F)F)cc1)c1ccc(=O)n(CCN2CCOCC2)c1 [Example 2, 1-(2-Morpholinoethyl)-6-oxo-N-[4-(trifluoromethoxy)phenyl]pyridine-3-carboxamide] | 215 µM (≈ 88.4 µg/mL) |
| O=C(Nc1ccc(OC(F)(F)Cl)cc1)c1ccc(=O)n([C@H]2CCOC2)c1 [Example 4, N-[4-[Chloro(difluoro)methoxy]phenyl]-6-oxo-1-[(3S)-tetrahydrofuran-3-yl]pyridine-3-carboxamide] | 180 µM (≈ 69.3 µg/mL) |
| CN1CC[C@@H](n2cc(C(=O)Nc3ccc(OC(F)(F)Cl)cc3)ccc2=O)C1 [Example 16, N-[4-[Chloro(difluoro)methoxy]phenyl]-1-[(3R)-1-methylpyrrolidin-3-yl]-6-oxo-pyridine-3-carboxamide] | 180 µM (≈ 71.6 µg/mL) |
| Cc1c(-n2cc(C(=O)Nc3ccc(OC(F)(F)Cl)cc3)ccc2=O)cnn1C [Example 18, N-[4-[Chloro(difluoro)methoxy]phenyl]-1-(1,5-dimethylpyrazol-4-yl)-6-oxo-pyridine-3-carboxamide] | 200 µM (≈ 81.8 µg/mL) |
| Cn1nccc1-n1cc(C(=O)Nc2ccc(OC(F)(F)Cl)cc2)ccc1=O [Example 25, N-[4-(Chlorodifluoromethoxy)phenyl]-1-(1-methyl-1H-pyrazol-5-yl)-6-oxo-1,6-dihydropyridine-3-carboxamide] | 170 µM (≈ 67.1 µg/mL) |
| O=C(Nc1ccc(OC(F)(F)Cl)cc1)c1ccc(=O)n(-c2cnn(C(F)F)c2)c1 [Example 27, N-[4-(Chlorodifluoromethoxy)phenyl]-1-[1-(difluoromethyl)-1H-pyrazol-4-yl]-6-oxo-1,6-dihydropyridine-3-carboxamide] | 100 µM (≈ 43.1 µg/mL) |
| Cc1cncc(-n2cc(C(=O)Nc3ccc(OC(F)(F)Cl)cc3)ccc2=O)c1 [Example 57, N-[4-[Chloro(difluoro)methoxy]phenyl]-1-(5-methyl-3-pyridyl)-6-oxo-pyridine-3-carboxamide] | 170 µM (≈ 69 µg/mL) |
| COc1cc(C(=O)Nc2ccc(OC(F)(F)Cl)cc2)cn(-c2cncnc2)c1=O [Example 58, N-[4-[Chloro(difluoro)methoxy]phenyl]-5-methoxy-6-oxo-1-pyrimidin-5-yl-pyridine-3-carboxamide] | 180 µM (≈ 76.1 µg/mL) |
| Cc1cc(C(=O)Nc2ccc(OC(F)(F)Cl)cc2)cn(-c2cncnc2)c1=O [Example 59, N-[4-[Chloro(difluoro)methoxy]phenyl]-5-methyl-6-oxo-1-pyrimidin-5-yl-pyridine-3-carboxamide] | 190 µM (≈ 77.3 µg/mL) |
| O=C(Nc1ccc(OC(F)(F)Cl)cc1)c1cc(N2CCOCC2)c(=O)n(-c2cncnc2)c1 [Example 60, N-[4-(Chlorodifluoromethoxy)phenyl]-5-(morpholin-4-yl)-6-oxo-1-(pyrimidin-5-yl)-1,6-dihydropyridine-3-carboxamide] | 210 µM (≈ 100 µg/mL) |
| Cn1cc2ncc(-n3cc(C(=O)Nc4ccc(OC(F)(F)Cl)cc4)ccc3=O)cc2n1 [Example 71, N-[4-(Chlorodifluoromethoxy)phenyl]-1-{2-methyl-2H-pyrazolo[4,3-b]pyridin-6-yl}-6-oxo-1,6-dihydropyridine-3-carboxamide] | 110 µM (≈ 49 µg/mL) |
| O=C(Nc1ccc(OC(F)(F)Cl)cc1)c1cccc(-c2cncnc2)c1 [Ref. ex. 2, N-[4-[Chloro(difluoro)methoxy]phenyl]-3-pyrimidin-5-ylbenzamide, reference compound] | 9 µM (≈ 3.38 µg/mL) |
| Cc1ccc(C(=O)Nc2ccc(OC(F)(F)F)cc2)cc1-c1cccnc1 [Ref. ex. 3, 4-Methyl-3-(3-pyridyl)-N-[4-(trifluoromethoxy)phenyl]benzamide, reference compound] | 56 µM (≈ 20.9 µg/mL) |
